Values quoted from earlier work, collected in paper PMC12246617, “Cryo-EM structures reveal the PP2A–B55α and Eya3 interaction that can be disrupted by a peptide inhibitor” (The Journal of Biological Chemistry, 2025).

Test system: PP2A–B55
Settings: 6,8-difluoro-4-methylumbelliferyl phosphate substrate; 30 mM Hepes [pH 7.0], 150 mM NaCl, 1 mM MnCl2, 1 mM DTT, 0.01% Triton X-100, 0.1 mg/ml BSA; ref 84 (Padi et al.); read-out: IC50 (phosphatase activity of PP2A–B55)
Excerpt: To identify the factor that led to this discrepancy, we first repeated our as ...

IC50: 1100 ± 84 nM
Substance: Eya3 peptide: Eya3 peptide (residues 62–108) of Padi et al. (RSSNDYTSQMYSAKPYAHILSVPVSETAYPGQTQYQTLQQTQPYAVY; UniProt Q99504 62-108, looked up, fragment)
